“And” between values parts separate entries of the source, which are not always exact repeats. Equal values may be shown once. Marks after values point to notes of the source that are not given here.
Legend:
[1] = tested on: highly enriched culture of strain VS; test: Batch dechlorination and growth, highly enriched culture of strain VS; assay type: cell-based, Dehalococcoides species strain VS; conditions: for Final VC rate / Final cells: after utilization of the substance; for Final VC rate / Mass dechlorinated: duplicate bottles; for Final cells: duplicates, computed from VC rate; for Initial VC rate: before utilization of the substance, average and range of replicates; for Growth yield by competitive PCR: strain VS grown on the substance
Procedure: The purpose of the second study was to compare dechlorination rates of PCE, TCE and DCE between the three different cultures that grew on VC (Victoria, KB-1/VC and Pinellas). The development of inocula here was performed with VC, just as in the first study. For the growth and substrate utilization experiments, triplicate bottles were set up for each culture containing 1 mL of inoculum and either neat PCE (0.4 μL), neat TCE (0.3 μL), saturated DCE solution (34 μL) or gaseous VC (200 μL). To further investigate TCE removal, bottles (120 mL) were filled with 20 mL of a highly enriched culture of strain VS made from the Victoria culture. Duplicate bottles were supplied with gaseous VC (50 μL on day 0, then 150 μL on day 3) or TCE (0.4 μL neat liquid). Dechlorination was followed until all VC or TCE was converted to ethene (day 12). The change in strain VS concentration during VC and TCE utilization was then determined both by competitive PCR and by an activity procedure evaluated previously for strain VS. In the activity procedure a non-growth limiting concentration of VC (150 μL) along with excess hydrogen is added to a culture and the initial dechlorination rate is measured (over <1 day). A good estimate of strain VS concentration can then be obtained using the previously determined strain VS maximum VC utilization rate (7.8×10^−10 μmol Cl^− (cell·d)^−1). The increase in strain VS concentration during TCE or VC utilization was determined with these two procedures on the culture before and after TCE and VC utilization.
Comparative dechlorination and growth kinetics. With mixed cultures, the concentration of organisms carrying out a particular reaction is generally unknown and difficult to determine. Thus, reaction rates with mixed cultures are generally reported in units that cannot be used for comparative purposes. For example, dechlorination rates have been reported in mass removal rate per microcosm or bottle, per unit liquid volume, per unit of total biomass or per unit of total protein. However, the approach described here allows us to make direct comparisons of basic dechlorination and growth kinetics between cultures. The main parameter used in this comparison is organism maximum growth rate, which is directly related to dechlorination kinetics. The maximum growth rate for each culture was determined from a least-squares model fit to experimental data. For this purpose, the dechlorination of TCE, DCE, and VC was modeled using Monod kinetics with competitive kinetics between the multiple electron acceptors involved in dechlorination (for the case when electron donor is non-rate-limiting):
Modeling approach. The above procedure was utilized to compare VC, DCE and TCE maximum growth rates between the Dehalococcoides like-microorganisms in the three cultures (strain VS, KB-1/VC and Pinellas). Previously determined VC and DCE half-velocity and competitive coefficients were included in this modeling approach (Table 2). Also, a previously determined decay coefficient (0.05 d^−1) for cells growing under optimal conditions (non-limiting electron acceptor and donor) was included. This leaves the maximum growth rates on individual chlorinated ethenes (μV, μD, or μT) as the only fitting parameters, which were determined, together with the 95% confidence interval) using non-linear least-squares fit to the experimental data.
DNA isolation and competitive PCR. For the Victoria, Pinellas, and KB-1/VC genomic DNA was extracted (1 mL) from the inoculum used in the VC growth comparison study and also from cultures in the comparative substrate utilization study following complete TCE dechlorination. DNA was extracted using a DNeasy® tissue system (Qiagen Inc, Valencia, Calif.), following the manufacture's instructions (final volume 200 μL). DNA was extracted from the D. ethenogenes strain 195 culture following dechlorination of DCE. […]

[2] = tested on: VC reductive dehalogenase of Dehalococcoides sp. strain VS; test: VC-reduction enzyme assay with Ti(III)-reduced methyl viologen as electron donor, gas chromatography; assay type: biochemical
Procedure: Enzyme assays. Cells were harvested by centrifugation (20,000 g, 20 min, 4° C.) under strictly anoxic conditions using the anoxic chamber, washed and resuspended in degassed MOPS buffer (20 mM, pH 7.2) supplemented with 2 mM DTE and 0.2 mM titanium(III)NTA (buffer A). The buffer was incubated overnight in the anoxic chamber before addition of reducing agents. Cell-free extracts were obtained by anoxic disruption of cells by French Press treatment (138 MPa; two passages), followed by two centrifugation steps (30,000×g, 15 min, 4° C.).
Assays of VC-reduction were conducted as described previously in 2-ml glass vials under an N2/H2 atmosphere with Ti(III)-reduced methyl viologen as artificial electron donor (Rosner et al.) The protein concentration in the assay varied between 10 and 100 μg/ml. The test was started by addition of gaseous VC to the assay mix (total aqueous volume 0.3 ml), and change in VC and ethene concentrations were followed with time by gas chromatography. Experiments testing for reduction of liquid chlorinated ethenes (PCE, TCE, DCE-isomers) were carried out essentially as described above with the appropriate substitution of the chlorinated ethene. The chlorinated compounds were added from aqueous stock solutions.
Oxygen sensitivity of VC-reducing activity in cell-free extract was investigated in buffer amended with resazurin as redox indicator. Prior to addition of VC, the assay was exposed to air until the resazurin underwent a color-change from colorless to pink. Subsequently, the assay was rendered anoxic again by exchanging the gas phase inside the anoxic chamber followed by addition of Ti(III)NTA (5 mM final concentration). All enzyme assays were carried out at ambient temperature, and given activities are means of at least three independent measurements.
Partial purification of VC reductase. Protein purification was performed at 4° C. in the anoxic chamber. The membrane fraction was obtained by centrifugation of cell-free extract at 100,000×g for 90 min at 4° C. The pellet was resuspended in 1 ml buffer A supplemented with 2 mM 3-[(3-cholamidopropyl)dimethylammonio]-1-propanesulfonic acid (CHAPS), and incubated for 1 h on ice. After subsequent centrifugation (100,000×g, 90 min, 4° C.) the solubilized membrane fraction was diluted with an equal volume of buffer B (50 mM 1,3-Bis[tris(hydroxymethyl)methylamino]propane (Bis-Tris Propane), pH 9.6, 2 mM dithiothreitol, 0.2 mM titanium(III)NTA, 20 mM CHAPS), and loaded on a 1-ml HighTrap Q column (Amersham Pharmacia) equilibrated with buffer C (same as buffer B but with 2 mM CHAPS). VC reductive dehalogenase activity was eluted as a single peak (at 550 to 580 mM NaCl) with 10 ml buffer C followed by a 40-ml linear gradient from 0-700 mM NaCl in buffer C at a flow of 1 ml/min. Fractions containing the highest activity were pooled and mixed with an equal volume of buffer A containing 20 mM CHAPS, and applied to a Superose-6 column equilibrated with the same buffer. Enzyme activity was eluted with buffer A at a flow rate of 0.2 ml/min. The protein concentration of the samples was determined according to Bradford with bovine serum albumin as a standard.

Row | SMILES | Half velocity coefficient KT ([1]; Highly enriched culture) [µM] | Maximum Growth Rate ([1]; Highly enriched strain VS culture, 95% confidence interval) | Final VC rate [1] | Final cells [1] | Initial VC rate [1] | Mass dechlorinated [1] | Growth yield by competitive PCR [1] | reduction rate relative to reduction rate for cDCE to VC ([2]; reduction of TCE to cDCE) [%] | effect on the reduction rate of VC ([2]; saturating concentrations of PCE or TCE present) | rate of reduction by active protein fractions ([2]; fractions after gel filtration, reduced methyl viologen as electron donor)
1 | ClC=C(Cl)Cl [TCE, trichloroethene] | 12.4 ± 0.6 | 0.35 day⁻¹ and 0.35 ± 0.13 day⁻¹ | 312 µmol·days/L and 204 µmol·days/L | 4.0 × 10^11 cell L^−1 and 2.6 × 10^11 cell L^−1 | 28 ± 2^a nmol (d · L)^−1 | 10.94 µmol and 8.97 µmol | 4.7±0.3×10^8 cell/μmol Cl^− | 5 | not affected | –
2 | C=CCl [VC, vinyl chloride] | – | – | 228 µmol·days/L and 204 µmol·days/L | 2.9 × 10^11 cell L^−1 and 2.6 × 10^11 cell L^−1 | 28 ± 2^a nmol (d · L)^−1 | 10.39 µmol and 10.52 µmol | 5.2±0.4×10^8 cell/μmol Cl^− | – | – | 350 nmol min^−1 [mg protein]^−1
